In patent US11433014B2, “Polyol polyrhamnosides, process for the preparation thereof, and cosmetic and/or pharmaceutical composition comprising same” (SOCIETE D'EXPLOITATION DE PRODUITS POUR LES INDUSTRIES …, priority 2017, dated 2022):
Several values for one entry are separate records, joined by “and”; a condition that tells them apart may be missing. Identical values can stand only once.

Test system: Normal human fibroblasts
Assay: Production of hyaluronic acid on human fibroblast cultures
Type: cell-based
Details: EGF 10 ng/ml (positive reference), 72-hour incubation
Protocol: B)—Evaluation of the Moisturizing Effect of the Compositions According to the Invention—Measurement of the Production of Hyaluronic Acid on Human Fibroblast Cultures:
Normal human fibroblasts are seeded and cultured in 96-well plates in 10% FCS (fetal calf serum) culture medium, at 37° C. in a humid atmosphere containing 5% CO2. […] Each condition is performed in n=4. At the end of a 72-hour incubation, the amount of hyaluronic acid excreted into the culture supernatant is measured using a specific assay kit (Hyaluronan Duo Set Assay Development Kit—Biotechne); and the amount of protein present in the cell lawns is measured using the BC Assay kit (Interchim). The amount of hyaluronic acid assayed is then expressed relative to the amount of protein per well. Means and standard deviations are calculated per condition and the level of hyaluronic acid production is evaluated by comparing the test conditions with the control condition (untreated cells).

EGF: epidermal growth factor, the positive reference for the model
Amount of hyaluronic acid produced, Mean (culture supernatant, n=4): 32.29 ng/μg protein and 25.28 ng/μg protein
Amount of hyaluronic acid produced, Difference relative to the control (vs untreated cells): 164%
